Results: patent publication US10631539B2, “Fungicidal compositions” (SYNGENTA PARTICIPATIONS AG, priority 2015, dated 2020)

System: Puccinia recondita f. sp. tritici
Experiment: Puccinia recondita f. sp. tritici / wheat / leaf disc curative (brown rust)
Type: in vivo
Details: foliar, 24 h, wheat leaf disks cv. Kanzler, applied 1 day after inoculation (curative), compared to untreated control, read-out: disease control
Method: Puccinia recondita f. Sp. Tritici/Wheat/Leaf Disc Curative (Brown Rust)
Wheat leaf segments cv. Kanzler are placed on agar in multiwell plates (24-well format). The leaf segments are inoculated with a spore suspension of the fungus. Plates were stored in darkness at 19° C. and 75% rh. The formulated test compound or mixture composition diluted in water was applied 1 day after inoculation. The leaf segments were incubated at 19° C. and 75% rh under a light regime of 12 h light/12 h darkness in a climate cabinet and the activity of a compound or mixture composition was assessed as percent disease control compared to untreated when an appropriate level of disease damage appears in untreated check leaf segments (6-8 days after application).

With `CCCOC[C@H](C)Oc1nc(C)c(/N=C/N(C)CC)cc1Br` [Compound 67.002, N′-[5-bromo-2-methyl-6-[(1S)-1-methyl-2-propoxy-ethoxy]-3-pyridyl]-N-ethyl-N-methyl-formamidine] as the compound, how does the pest or weed control at 200 ppm read?
Its pest or weed control at 200 ppm is no less than 80%.

Which pest or weed control at 200 ppm does the source give for `CCCOC[C@@H](C)Oc1nc(C)c(/N=C/N(C)CC)cc1Br` [Compound 67.003, N′-[5-bromo-2-methyl-6-[(1R)-1-methyl-2-propoxy-ethoxy]-3-pyridyl]-N-ethyl-N-methyl-formamidine] here?
The pest or weed control at 200 ppm was no less than 80%.

`CCCOCC(C)Oc1nc(C)c(/N=C/N(C)CC)cc1C#N` (stereo not shown) [Compound 67.007, N′-[5-cyano-2-methyl-6-(1-methyl-2-propoxy-ethoxy)-3-pyridyl]-N-ethyl-N-methyl-formamidine] was tested. Which pest or weed control at 200 ppm did it give?
The pest or weed control at 200 ppm was no less than 80%.

How did the pest or weed control at 200 ppm turn out when `CCCOCC(C)Oc1nc(C)c(/N=C/N(C)CC)cc1C(F)F` (stereo not shown) [Compound 67.009, N′-[5-(difluoromethyl)-2-methyl-6-(1-methyl-2-propoxy-ethoxy)-3-pyridyl]-N-ethyl-N-methyl-formamidine] was run?
Its pest or weed control at 200 ppm is no less than 80%.

Which pest or weed control at 200 ppm does the source give for `CCCOCC(C)Oc1nc(C)c(/N=C/N(C)CC)cc1OC(F)F` (stereo not shown) [Compound 67.010] here?
The pest or weed control at 200 ppm was no less than 80%.

With `CCCOCC(C)Oc1nc(C)c(/N=C/N(C)CC)cc1C` (stereo not shown) [Compound 67.011, N′-[2,5-dimethyl-6-(1-methyl-2-propoxy-ethoxy)-3-pyridyl]-N-ethyl-N-methyl-formamidine] as the compound, how does the pest or weed control at 200 ppm read?
The pest or weed control at 200 ppm was no less than 80%.

`CCCOCC(C)Oc1ccc(/N=C/N(C)CC)c(C)n1` (stereo not shown) [Compound 67.012] was tested. Which pest or weed control at 200 ppm did it give?
Its pest or weed control at 200 ppm is no less than 80%.

How did the pest or weed control at 200 ppm turn out when `CCCOCC(C)Oc1nc(C)c(/N=C/N(C)CC)cc1Br` (stereo not shown) [Compound 67.013, N′-[5-bromo-2-methyl-6-(1-methyl-2-propoxy-ethoxy)-3-pyridyl]-N-ethyl-N-methyl-formamidine] was run?
Its pest or weed control at 200 ppm is no less than 80%.

With `C=CCOCC(C)Oc1nc(C)c(/N=C/N(C)CC)cc1Cl` (stereo not shown) [Compound 67.014, N′-[6-(2-allyloxy-1-methyl-ethoxy)-5-chloro-2-methyl-3-pyridyl]-N-ethyl-N-methyl-formamidine] as the compound, how does the pest or weed control at 200 ppm read?
Its pest or weed control at 200 ppm is no less than 80%.

With `CCCOCC(C)Oc1nc(C)c(/N=C/N(C)CC)cc1Cl` (stereo not shown) [Compound 67.015, N′-[5-chloro-2-methyl-6-(1-methyl-2-propoxy-ethoxy)-3-pyridyl]-N-ethyl-N-methyl-formamidine] as the compound, how does the pest or weed control at 200 ppm read?
Its pest or weed control at 200 ppm is no less than 80%.

`C=CCOCC(COC)Oc1nc(C)c(/N=C/N(C)CC)cc1Br` (stereo not shown) [Compound 67.016] was tested. Which pest or weed control at 200 ppm did it give?
Its pest or weed control at 200 ppm is no less than 80%.

With `C=CCOCC(C)Oc1nc(C)c(/N=C/N(C)CC)cc1C#N` (stereo not shown) [Compound 67.017] as the compound, how does the pest or weed control at 200 ppm read?
The pest or weed control at 200 ppm was no less than 80%.

How did the pest or weed control at 200 ppm turn out when `CCCOCC(C)Oc1nc(C)c(/N=C/N(C)C(C)C)cc1Br` (stereo not shown) [Compound 67.018, N′-[5-bromo-2-methyl-6-(1-methyl-2-propoxy-ethoxy)-3-pyridyl]-N-isopropyl-N-methyl-formamidine] was run?
The pest or weed control at 200 ppm was no less than 80%.

With `CCN(C)/C=N/c1cc(C#N)c(OC(C)COc2cccc(C(F)(F)F)c2)nc1C` (stereo not shown) [Compound 67.020] as the compound, how does the pest or weed control at 200 ppm read?
The pest or weed control at 200 ppm was no less than 80%.

With `CCN(C)/C=N/c1cc(C#N)c(OC(C)COc2ccc(Cl)cc2)nc1C` (stereo not shown) [Compound 67.021] as the compound, how does the pest or weed control at 200 ppm read?
Its pest or weed control at 200 ppm is no less than 80%.

How did the pest or weed control at 200 ppm turn out when `CCN(C)/C=N/c1cc(C#N)c(OC(C)COc2ccccc2)nc1C` (stereo not shown) [Compound 67.022] was run?
Its pest or weed control at 200 ppm is no less than 80%.

With `CCN(C)/C=N/c1cc(Cl)c(OC(C)COc2cccc(C(F)(F)F)c2)nc1C` (stereo not shown) [Compound 67.023] as the compound, how does the pest or weed control at 200 ppm read?
Its pest or weed control at 200 ppm is no less than 80%.

With `CCN(C)/C=N/c1cc(Cl)c(OC(C)COc2ccc(Cl)cc2)nc1C` (stereo not shown) [Compound 67.024] as the compound, how does the pest or weed control at 200 ppm read?
The pest or weed control at 200 ppm was no less than 80%.

How did the pest or weed control at 200 ppm turn out when `CCN(C)/C=N/c1cc(Cl)c(OC(C)COc2ccccc2)nc1C` (stereo not shown) [Compound 67.025] was run?
The pest or weed control at 200 ppm was no less than 80%.

With `CCN(C)/C=N/c1cc(Br)c(OC(C)COc2ccc(Cl)cc2)nc1C` (stereo not shown) [Compound 67.026] as the compound, how does the pest or weed control at 200 ppm read?
Its pest or weed control at 200 ppm is no less than 80%.

`CCN(C)/C=N/c1cc(Br)c(OC(C)COc2cccc(C(F)(F)F)c2)nc1C` (stereo not shown) [Compound 67.027] was tested. Which pest or weed control at 200 ppm did it give?
Its pest or weed control at 200 ppm is no less than 80%.

How did the pest or weed control at 200 ppm turn out when `CCN(C)/C=N/c1cc(Br)c(OC(C)COc2ccccc2)nc1C` (stereo not shown) [Compound 67.028] was run?
The pest or weed control at 200 ppm was no less than 80%.

System: Phakopsora pachyrhizi (triazole tolerant soybean rust strain)
Experiment: Phakopsora pachyrhizi on soybean, preventive treatment
Type: in vivo
Details: foliar, 264 h, 1 day preventive, leaf discs evaluated 11 days after application, compared to untreated control, read-out: disease control
Method: Phakopsora pachyrhizi on Soybean, Preventive Treatment
The compound or mixture composition activity was tested under 1 day preventive conditions. Soybean plants with a fully enfolded first trifoliate leaf were sprayed with a track sprayer and 50 l/ha spray volume with the test compounds or mixture composition, either solo or in tankmix as shown in the table below.
1 day after application leaf discs were cut from the first trifoliate leaf and placed in multiwell plates on water-agar. 5 leaf discs per treatment where infested with spores of a triazole tolerant soybean rust strain. The multiwell plates where sealed and placed in an incubator 48 h in darkness and 12 h light/dark cycle afterwards. Rust infestation on leaf discs was evaluated visually 11 days after application and average activity calculated in relation to disease severity on untreated check leaf discs.

`CCCOC[C@H](C)Oc1nc(C)c(/N=C/N(C)CC)cc1Br` [Compound 67.002, N′-[5-bromo-2-methyl-6-[(1S)-1-methyl-2-propoxy-ethoxy]-3-pyridyl]-N-ethyl-N-methyl-formamidine] was tested. Which pest or weed control at 200 ppm did it give?
The pest or weed control at 200 ppm was no less than 80%.

System: Puccinia recondita f. sp. tritici
Experiment: Puccinia recondita f. sp. tritici / wheat / leaf disc preventative (brown rust)
Type: in vivo
Details: foliar, wheat leaf disks cv. Kanzler, inoculated 1 day after application, compared to untreated control, read-out: disease control
Method: Puccinia recondita f. sp. tritici/wheat/leaf disc preventative (brown rust)
Wheat leaf segments cv. Kanzler were placed on agar in multiwell plates (24-well format) and sprayed with the formulated test compound or mixture composition diluted in water. The leaf disks were inoculated with a spore suspension of the fungus 1 day after application. The inoculated leaf segments were incubated at 19° C. and 75% rh under a light regime of 12 h light/12 h darkness in a climate cabinet and the activity of a compound or mixture composition was assessed as percent disease control compared to untreated when an appropriate level of disease damage appears in untreated check leaf segments (7-9 days after application).

How did the pest or weed control at 200 ppm turn out when `CCCOC[C@H](C)Oc1nc(C)c(/N=C/N(C)CC)cc1Br` [Compound 67.002, N′-[5-bromo-2-methyl-6-[(1S)-1-methyl-2-propoxy-ethoxy]-3-pyridyl]-N-ethyl-N-methyl-formamidine] was run?
Its pest or weed control at 200 ppm is no less than 80%.

System: Blumeria graminis f. Sp. Tritici (Erysiphe qraminis f. Sp. Tritici)
Experiment: Blumeria graminis f. sp. tritici / wheat / leaf disc preventative (powdery mildew on wheat)
Type: in vivo
Details: foliar, wheat leaf disks cv. Kanzler, inoculated 1 day after application, compared to untreated control, read-out: disease control
Method: Blumeria graminis f. Sp. Tritici (Erysiphe qraminis f. Sp. Tritici)/Wheat/Leaf Disc Preventative (Powdery Mildew on Wheat)
Wheat leaf segments cv. Kanzler were placed on agar in a multiwell plate (24-well format) and sprayed with the formulated test compound or mixture composition diluted in water. The leaf disks were inoculated by shaking powdery mildew infected plants above the test plates 1 day after application. The inoculated leaf disks were incubated at 20° C. and 60% rh under a light regime of 24 h darkness followed by 12 h light/12 h darkness in a climate chamber and the activity of a compound or mixture composition was assessed as percent disease control compared to untreated when an appropriate level of disease damage appears on untreated check leaf segments (6-8 days after application).

For `CCCOC[C@H](C)Oc1nc(C)c(/N=C/N(C)CC)cc1Br` [Compound 67.002, N′-[5-bromo-2-methyl-6-[(1S)-1-methyl-2-propoxy-ethoxy]-3-pyridyl]-N-ethyl-N-methyl-formamidine], which pest or weed control at 200 ppm is on record?
Its pest or weed control at 200 ppm is no less than 80%.
